The text below walks through data of patent US20220002314A1 (priority 2018, published 2022).

Structures are written as SMILES. Read-outs that look alike come from different tables or passages of the source.

One test deals with Human μ-opioid receptor (Homo sapiens, UniProt P35372). Kind of test: biochemical. Type of test: binding.
Test [1] deals with Human α2δ-1 subunit of Cav2.2 calcium channel (Homo sapiens, UniProt P54289). Kind of test: biochemical. Type of test: binding.
Sequence of Human α2δ-1 subunit of Cav2.2 calcium channel (P54289 25-1103): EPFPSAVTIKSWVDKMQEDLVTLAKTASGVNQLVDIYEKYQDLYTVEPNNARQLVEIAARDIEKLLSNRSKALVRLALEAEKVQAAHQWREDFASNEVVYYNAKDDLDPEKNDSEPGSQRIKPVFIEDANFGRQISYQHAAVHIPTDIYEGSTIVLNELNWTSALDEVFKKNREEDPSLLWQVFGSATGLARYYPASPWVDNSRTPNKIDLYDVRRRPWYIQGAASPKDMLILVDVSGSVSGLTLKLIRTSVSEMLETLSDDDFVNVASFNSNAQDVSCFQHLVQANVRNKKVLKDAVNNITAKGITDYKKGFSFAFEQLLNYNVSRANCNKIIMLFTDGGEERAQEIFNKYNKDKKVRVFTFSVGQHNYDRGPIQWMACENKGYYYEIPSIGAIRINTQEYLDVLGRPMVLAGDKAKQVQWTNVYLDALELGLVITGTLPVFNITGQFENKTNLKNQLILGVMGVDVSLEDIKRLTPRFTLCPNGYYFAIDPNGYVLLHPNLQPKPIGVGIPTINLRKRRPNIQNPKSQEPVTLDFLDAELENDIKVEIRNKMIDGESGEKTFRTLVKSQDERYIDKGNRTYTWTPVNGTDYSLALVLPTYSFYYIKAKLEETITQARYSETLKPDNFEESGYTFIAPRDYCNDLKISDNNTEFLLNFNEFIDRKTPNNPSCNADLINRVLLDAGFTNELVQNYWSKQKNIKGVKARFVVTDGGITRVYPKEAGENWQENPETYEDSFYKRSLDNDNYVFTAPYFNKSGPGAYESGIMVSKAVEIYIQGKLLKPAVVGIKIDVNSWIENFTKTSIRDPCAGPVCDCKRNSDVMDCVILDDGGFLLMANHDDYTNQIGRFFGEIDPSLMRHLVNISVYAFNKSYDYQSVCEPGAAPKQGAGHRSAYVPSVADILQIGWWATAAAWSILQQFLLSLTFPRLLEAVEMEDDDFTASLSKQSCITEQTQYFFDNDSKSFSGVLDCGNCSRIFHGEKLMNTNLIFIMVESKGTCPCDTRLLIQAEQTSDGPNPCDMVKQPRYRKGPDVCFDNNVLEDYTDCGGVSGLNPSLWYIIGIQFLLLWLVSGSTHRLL

Sequence of Human μ-opioid receptor (P35372 whole entry): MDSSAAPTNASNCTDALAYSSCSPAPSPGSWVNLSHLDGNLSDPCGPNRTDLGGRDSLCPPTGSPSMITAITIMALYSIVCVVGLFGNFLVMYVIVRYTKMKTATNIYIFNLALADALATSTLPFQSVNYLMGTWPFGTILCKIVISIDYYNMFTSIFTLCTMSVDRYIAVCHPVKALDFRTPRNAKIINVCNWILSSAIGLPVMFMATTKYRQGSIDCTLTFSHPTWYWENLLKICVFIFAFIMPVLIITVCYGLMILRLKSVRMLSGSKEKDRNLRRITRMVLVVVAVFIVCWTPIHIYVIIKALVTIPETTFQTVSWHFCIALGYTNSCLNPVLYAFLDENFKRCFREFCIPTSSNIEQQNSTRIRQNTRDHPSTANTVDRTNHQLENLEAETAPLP

With `CCCC(c1nc2cccc(Br)c2c(=O)n1CC)N1C[C@@H](C)N[C@@H](C)C1` (stereo partly drawn) [Example 14, 5-bromo-2-(1-((3S,5R)-3,5-dimethylpiperazin-1-yl)butyl)-3-ethylquinazolin-4(3H)-one], the Ki at Human μ-opioid receptor was more than 500 nM; in test [1], less than 500 nM.

For `CCCC(c1nc2ccc(Br)c(C)c2c(=O)n1CC)N1CCNCC1` (stereo not shown) [Example 84, 6-bromo-3-ethyl-5-methyl-2-(1-(piperazin-1-yl)butyl)quinazolin-4(3H)-one], the Ki at Human μ-opioid receptor was 100 to 500 nM; in test [1], 500 to 5000 nM.

As for `CCCC(c1nc2cc(-c3ccnc(CNC)c3)ccc2c(=O)n1C)N1C[C@@H](C)N[C@@H](C)C1` (stereo partly drawn) [Example 136, 2-(1-((3S,5R)-3,5-dimethylpiperazin-1-yl)butyl)-3-methyl-7-(2-((methylamino)methyl)pyridin-4-yl)quinazolin-4(3H)-one], the Ki at Human μ-opioid receptor (read-out: μ-binding) is more than 500 nM; in test [1] (read-out: α2δ-1 binding), 500 to 5000 nM.

Consider `CCCC(c1nc2cc(F)c(Br)cc2c(=O)n1CC)N1CCNCC1` (stereo not shown) [Example 83, 6-bromo-3-ethyl-7-fluoro-2-(1-(piperazin-1-yl)butyl)quinazolin-4(3H)-one], for which the Ki on Human μ-opioid receptor was 100 to 500 nM; in test [1] it was less than 500 nM.

As for `CCC[C@@H](c1nc2ccccc2c(=O)n1CC)N1C[C@@H](C)N[C@@H](C)C1` [Example 33, 2-((S)-1-((3S,5R)-3,5-Dimethylpiperazin-1-yl)butyl)-3-ethylquinazolin-4(3H)-one], the Ki in test [1] (read-out: α2δ-1 binding) was in the range of 500 to 5000 nM.

On to `CCCC(c1nc2c(C)cc(Br)cc2c(=O)n1CC)N1C[C@@H](C)N[C@@H](C)C1` (stereo partly drawn) [Example 20, 6-bromo-2-(1-((3S,5R)-3,5-dimethylpiperazin-1-yl)butyl)-3-ethyl-8-methylquinazolin-4(3H)-one], for which the Ki was more than 500 nM on Human μ-opioid receptor (read-out: μ-binding) and more than 5000 nM in test [1] (read-out: α2δ-1 binding).

For the molecule `CCCC(c1nc2ccccc2c(=O)n1CCN(C)CCc1ccccc1)N1C[C@@H](C)N[C@@H](C)C1` (stereo partly drawn) [Example 129, 2-(1-((3S,5R)-3,5-dimethylpiperazin-1-yl)butyl)-3-(2-(methyl(phenethyl)amino)ethyl)quinazolin-4(3H)-one], the Ki at Human μ-opioid receptor (read-out: μ-binding) was more than 500 nM; in test [1] (read-out: α2δ-1 binding), 500 to 5000 nM.

Regarding `CCC[C@@H](c1nc2c(F)cc(Br)cc2c(=O)n1CC)N1CCN[C@H](C)C1` [Example 48, 6-bromo-3-ethyl-8-fluoro-2-((S)-1-((R)-3-methylpiperazin-1-yl)butyl)quinazolin-4(3H)-one], the Ki was more than 500 nM on Human μ-opioid receptor and more than 5000 nM in test [1].

In the case of `CCC[C@@H](c1nc2cc(F)c(Br)cc2c(=O)n1C)N1CCN[C@@H](C)C1` [Example 63, 6-bromo-7-fluoro-3-methyl-2-((S)-1-((S)-3-methylpiperazin-1-yl)butyl)quinazolin-4(3H)-one], the Ki on Human μ-opioid receptor was more than 500 nM; in test [1], more than 5000 nM.

With `CCC[C@H](c1nc2cc(F)c(Br)cc2c(=O)n1CC)N1CCN[C@H](C)C1` [Example 208, 6-bromo-3-ethyl-7-fluoro-2-((R)-1-((R)-3-methylpiperazin-1-yl)butyl)quinazolin-4(3H)-one], the Ki is more than 500 nM at Human μ-opioid receptor and less than 500 nM in test [1].

`CCC[C@H](c1nc2ccc(Br)cc2c(=O)n1CC)[C@@H]1CCNCC1(F)F` [Example 194, 6-Bromo-2-((S)-1-((S)-3,3-difluoropiperidin-4-yl)butyl)-3-ethylquinazolin-4(3H)-one]: the Ki at Human μ-opioid receptor is more than 500 nM; in test [1], more than 5000 nM.

As to `CCC[C@@H](c1nc2ccc(Br)cc2c(=O)n1C)N1CCN[C@@H](C)C1` [Example 42, 6-bromo-3-methyl-2-((S)-1-((S)-3-methylpiperazin-1-yl)butyl)quinazolin-4(3H)-one], the Ki at Human μ-opioid receptor is more than 500 nM; in test [1], more than 5000 nM.

For `CCCC(c1nc2cccnc2c(=O)n1CC)N1CCNCC1` (stereo not shown) [Example 92, 3-ethyl-2-(1-(piperazin-1-yl)butyl)pyrido[3,2-d]pyrimidin-4(3H)-one], the values for the Ki (at Human μ-opioid receptor; in test [1]) were more than 500 nM and less than 500 nM, respectively.

With `CCC[C@@H](c1nc2cnc(C(F)(F)F)cc2c(=O)n1CC)N1CCN[C@@H](C)C1` [Example 235, 3-ethyl-2-((S)-1-((S)-3-methylpiperazin-1-yl)butyl)-6-(trifluoromethyl)pyrido[3,4-d]pyrimidin-4(3H)-one], the Ki at Human μ-opioid receptor was more than 500 nM; in test [1], more than 5000 nM.

Turning to `CCC[C@H](c1nc2ccccc2c(=O)n1CCOC)N1C[C@@H](C)N[C@@H](C)C1` [Example 123, 2-((R)-1-((3S,5R)-3,5-Dimethylpiperazin-1-yl)butyl)-3-(2-methoxyethyl)quinazolin-4(3H)-one], the Ki at Human μ-opioid receptor is more than 500 nM; in test [1], less than 500 nM.

Turning to `CCCC(c1nc2cc(C#N)ccc2c(=O)n1C)N1C[C@@H](C)N[C@@H](C)C1` (stereo partly drawn) [Example 176, 2-(1-((3S,5R)-3,5-Dimethylpiperazin-1-yl)butyl)-3-methyl-4-oxo-3,4-dihydroquinazoline-7-carbonitrile], the Ki on Human μ-opioid receptor was more than 500 nM; in test [1], less than 500 nM.

Turning to `CCC[C@@H](c1nc2ccc(Br)cc2c(=O)n1CC)[C@@H]1CCN[C@@H](C)C1` [Example 192, 6-bromo-3-ethyl-2-((R)-1-((2S,4R)-2-methylpiperidin-4-yl)butyl)quinazolin-4(3H)-one], the Ki on Human μ-opioid receptor was more than 500 nM; in test [1], more than 5000 nM.

As to `CCCC(c1nc2ccc(N3CCC(NC)CC3)cc2c(=O)n1CC)N1C[C@@H](C)N[C@@H](C)C1` (stereo partly drawn) [Example 140, 2-(1-((3S,5R)-3,5-dimethylpiperazin-1-yl)butyl)-3-ethyl-6-(4-(methylamino)piperidin-1-yl)quinazolin-4(3H)-one], the Ki on Human μ-opioid receptor was more than 500 nM; in test [1], less than 500 nM.

In the case of `CCCC(c1nc2c(Br)c(N(Cc3cccc(OC)c3)C(=O)OC(C)(C)C)ccc2c(=O)n1CC)N1C[C@@H](C)N[C@@H](C)C1` (stereo partly drawn) [Example 162, tert-Butyl (8-bromo-2-(1-((3S,5R)-3,5-dimethylpiperazin-1-yl)butyl)-3-ethyl-4-oxo-3,4-dihydroquinazolin-7-yl)(3-methoxybenzyl)carbamate], the results for the Ki (on Human μ-opioid receptor (read-out: μ-binding); in test [1] (read-out: α2δ-1 binding)) were more than 500 nM and 500 to 5000 nM, respectively.

Turning to `CCC[C@H](c1nc2cc(O[C@H](CNC)c3ccccc3)ccc2c(=O)n1C)N1C[C@@H](C)N[C@@H](C)C1` [Example 170, 2-((R)-1-((3S,5R)-3,5-dimethylpiperazin-1-yl)butyl)-3-methyl-7-((S)-2-(methylamino)-1-phenylethoxy)quinazolin-4(3H)-one], the results for the Ki (on Human μ-opioid receptor; in test [1]) were more than 500 nM and less than 500 nM, respectively.

Consider `CCCC(c1nc2ccccc2c(=O)n1CCN(C)C)N1C[C@@H](C)N(C)[C@@H](C)C1` (stereo partly drawn) [Example 131, 3-(2-(Dimethylamino)ethyl)-2-(1-((3S,5R)-3,4,5-trimethylpiperazine-1-yl)butyl)quinazolin-4(3H)-one], for which the Ki is more than 500 nM on Human μ-opioid receptor (read-out: μ-binding) and more than 5000 nM in test [1] (read-out: α2δ-1 binding).

For the molecule `CCC[C@H](c1nc2c(F)cc(Br)cc2c(=O)n1CC)N1CCN[C@H](C)C1` [Example 47, 6-Bromo-3-ethyl-8-fluoro-2-((R)-1-((R)-3-methylpiperazin-1-yl)butyl)quinazolin-4(3H)-one], the Ki was more than 500 nM at Human μ-opioid receptor and less than 500 nM in test [1].

On to `CCCCC(c1nc2ccccc2c(=O)n1CCOC)N1C[C@@H](C)N[C@@H](C)C1` (stereo partly drawn) [Example 115, 2-(1-((3S,5R)-3,5-dimethylpiperazin-1-yl)pentyl)-3-(2-methoxyethyl)quinazolin-4(3H)-one], for which the figures for the Ki (at Human μ-opioid receptor (read-out: μ-binding); in test [1]) were more than 500 nM and 500 to 5000 nM, respectively.

Regarding `CCCC(c1nc2ccc(N3CCC(N(C)Cc4ccccc4)CC3)cc2c(=O)n1CC)N1C[C@@H](C)N[C@@H](C)C1` (stereo partly drawn) [Example 151, 6-(4-(benzyl(methyl)amino)piperidin-1-yl)-2-(1-((3S,5R)-3,5-dimethylpiperazin-1-yl)butyl)-3-ethylquinazolin-4(3H)-one], the results for the Ki (at Human μ-opioid receptor; in test [1]) were more than 500 nM and less than 500 nM, respectively.

Turning to `CCCC(c1nc2ccccc2c(=O)n1C)N1CCNCC1` (stereo not shown) [Example 80, 3-methyl-2-(1-(piperazin-1-yl)butyl)quinazolin-4(3H)-one], the Ki on Human μ-opioid receptor (read-out: μ-binding) is more than 500 nM; in test [1] (read-out: α2δ-1 binding), 500 to 5000 nM.

With `CCC[C@@H](c1nc2ncc(Br)cc2c(=O)n1CC1CC1)N1CCN[C@@H](C)C1` [Example 74, 6-Bromo-3-(cyclopropylmethyl)-2-((S)-1-((S)-3-methylpiperazin-1-yl)butyl)pyrido[2,3-d]pyrimidin-4(3H)-one], the Ki at Human μ-opioid receptor was more than 500 nM; in test [1] it was more than 5000 nM.

Consider `CCC[C@H](c1nc2ccc(Br)cc2c(=O)n1CC)N1CCN[C@H](CF)C1` [Example 55, 6-Bromo-3-ethyl-2-((R)-1-((S)-3-(fluoromethyl)piperazin-1-yl)butyl)quinazolin-4(3H)-one], for which the Ki on Human μ-opioid receptor is more than 500 nM; in test [1], less than 500 nM.

`CCCC(c1nc2ccccc2c(=O)n1C)N1C[C@@H](C)N[C@@H](C)C1` (stereo partly drawn) [Example 2, 2-(1-((3S,5R)-3,5-dimethylpiperazin-1-yl)butyl)-3-methylquinazolin-4(3H)-one]: the Ki on Human μ-opioid receptor is more than 500 nM; in test [1], less than 500 nM.

Take `CCCC(c1nc2ccc(-c3ccncc3)cc2c(=O)n1CC)N1C[C@@H](C)N[C@@H](C)C1` (stereo partly drawn) [Example 132, 2-(1-((3S,5R)-3,5-Dimethylpiperazin-1-yl)butyl)-3-ethyl-6-(pyridin-4-yl)quinazolin-4(3H)-one]: the Ki is more than 500 nM on Human μ-opioid receptor and less than 500 nM in test [1].

With `CCC[C@@H](c1nc2cc(O[C@H](CCNC)c3ccccc3)ccc2c(=O)n1C)N1C[C@@H](C)N[C@@H](C)C1` [Example 164, 2-((S)-1-((3S,5R)-3,5-Dimethylpiperazin-1-yl)butyl)-3-methyl-7-((R)-3-(methylamino)-1-phenylpropoxy)quinazolin-4(3H)-one], the values for the Ki (at Human μ-opioid receptor; in test [1]) were more than 500 nM and 500 to 5000 nM, respectively.

As for `CCC[C@@H](c1nc2ccc(Cl)cc2c(=O)n1CC)N1CCN[C@H](CF)C1` [Example 232, 6-chloro-3-ethyl-2-((S)-1-((S)-3-(fluoromethyl)piperazin-1-yl)butyl)quinazolin-4(3H)-one], the figures for the Ki (on Human μ-opioid receptor; in test [1]) were more than 500 nM and more than 5000 nM, respectively.
